In patent US20230044268A1, “AN IMPROVED PROCESS FOR PREPARATION OF LIRAGLUTIDE” (SHILPA MEDICARE LIMITED, priority 2019, published 2023):

Assay: storage stability of liraglutide obtained by the present process
Assay type: physicochemical
Settings: storage of the isolated product; conditions not given
Source text: The present invention also relates to a process for the preparation of liraglutide, which is substantially pure having a purity of greater or equal to 99.5% and meeting the ICH guidelines. Further, the liraglutide obtained as per the present process is found devoid of any other process related impurities and is adequately stable to handle and store for longer time (at least up to more than 6 months) without any significant or measurable change in its morphology and physicochemical characteristics.

- stable to handle and store without any significant or measurable change in morphology and physicochemical characteristics: more than 6 months
Substance: Liraglutide
